Measured values reported in US6465460B1, “Compositions and methods for prevention and treatment of protozoal disease” (New Ace Research Company, priority 1998, dated 2002).

What was measured:
[1] = pH stability of sodium salt of diclazuril (dropwise 1N HCl until cloudy); assay type: physicochemical
Procedure: (§1) The manufacturer of diclazuril, JANSEEN Research Foundation, listed the pKa of diclazuril to be 5.92 in its physico-chemical characteristics of diclazuril. It can be expected that at pH's above the pKa of the compound (i.e. pH>6), aqueous solution of diclazuril would stay in solution. Preliminary studies were conducted to determine the pH at which sodium salt would precipitate.
(§2) Sodium salt of diclazuril was dissolved in water. […] The pH of the aqueous solution was 12.4. To this solution, 1N HCl was added dropwise while stirring and the pH at which the solution began to turn cloudy was recorded.
This will not cause a problem as there are many drugs on the market that are formulated at higher pHs for exactly the same reason.

[2] = listed by JANSEEN Research Foundation; cited from earlier work
[3] = assay type: physicochemical
Procedure: Diclazuril has a very low solubility in water (<1×10^−7 at pH 6.5) and can in fact be considered as practically-insoluble in water. A presently preferred plasma drug concentration of about 8 μg/ml for about 25-30 days is needed for the effective treatment of equine protozoan myeloencephalitis (EPM). The oral bioavailability of diclazuril is very low. Thus, a parenteral formulation is desired.
as §2

[4] = Repeated daily IV administration of diclazuril in DMSO to the horse DEEP POWDER: plasma levels; assay type: in vivo; details: horse 1160 lbs, 0.5 mg/lb (580 mg) in DMSO IV once a day for eight days, sampled 24 hours after each dose, read-out: final steady state plasma concentration of diclazuril
Procedure: The horse, DEEP POWDER, 1160 lbs., in Table 2 above was administered diclazuril at a dose of 0.5 mg/lb. (580 mg) in DMSO IV once a day for eight days. Plasma levels of diclazuril at 24 hours after each dose administration and just before the next day's dosing are represented by the solid circles [drawing 6]
in the above Table 2. Note bow the dose of […] yields a stepwise increasing plasma concentrations of diclazuril, yielding a final steady state plasma concentration of diclazuril of about 10,000 ng/ml.

pKa of diclazuril = assay type: physicochemical; details: aqueous solution of the sodium salt of diclazuril; inferred from pH stability study of the sodium salt; read-out: pKa inferred from precipitation pH
Procedure: as §1, §2

in vivo = test: in vivo; design: species or system horse
Procedure: OWENS, (about 1,000 lbs.) received 750 mg of diclazuril powder dissolved in 30 ml of DMSO, intravenously, twice on day one, at zero and zero plus one hours for a total dose of 1,500 mg. Blood samples were drawn at the indicated time points immediately before the next dosing and the solid circles [drawing 4] in FIG. 1 represent plasma concentrations of diclazuril after these administrations. Plasma concentrations of dicalzuril in ng/ml are represented on the vertical axis against time in days on the horizontal axis. […] Concentrations at 72 hr and 96 hr were not included in calculation following IV administration. Area Under the Curve (AUC from 0 to ∞): Intercept-Slope Method [formula] […] Cl=55.26 ml/min. […] ClH=QH. EH EH is lower than 0.3 so diclazuril is found to have low hepatic extraction ratio.

Babesia equi = details: horses treated for piroplasmosis; cited from earlier work

N#CC(c1ccc(Cl)cc1)c1c(Cl)cc(-n2ncc(=O)[n-]c2=O)cc1Cl.[Na+] (stereo not drawn) [sodium salt of diclazuril]
pH at which the solution began to turn cloudy ([1]; 1N HCl added dropwise while stirring, preliminary study): 10.5
pH of the aqueous solution ([1]; sodium salt dissolved in water): 12.4

N#CC(c1ccc(Cl)cc1)c1c(Cl)cc(-n2ncc(=O)[nH]c2=O)cc1Cl (stereo not drawn) [diclazuril]
pKa listed by manufacturer [2]: 5.92
solubility in water (in words) [3]: completely insoluble in water
concentration at 24 h [4]: ~10000 ng/mL
pKa (pKa of diclazuril): ~10.5
level of diclazuril in urine samples (in vivo): Not detectable
EH (hepatic extraction ratio) (in vivo; horse): lower than 0.3
AUC (in vivo; horse, iv): 452 µg·h/mL
clearance (in vivo; horse, iv): 55.3 mL/min
half-life (in vivo; horse, iv): ~48 h

O=C(Nc1cccc(C2=NCCN2)c1)Nc1cccc(C2=NCCN2)c1 [imidocarb dipropionate]
adverse side effects of treatment (Babesia equi): salivation, restlessness, colic and gastrointestinal tract hypermotility
